Legend:
Format in all cases: cell-based
[1] = target: T1, OxdA (Pseudomonas chlororaphis, UniProt Q7WSJ4); assay: whole-cell dehydration to adiponitrile, GC; conditions: E. coli resting cells, 50 mM potassium phosphate pH 7.0, 30 °C, argon, with or without 20% DMSO; activity only per bio wet weight
T1 construct: recombinant in E. coli, resting whole cells; plasmid details only in supplement; ferrous heme enzyme
T1 sequence (Q7WSJ4 1-352): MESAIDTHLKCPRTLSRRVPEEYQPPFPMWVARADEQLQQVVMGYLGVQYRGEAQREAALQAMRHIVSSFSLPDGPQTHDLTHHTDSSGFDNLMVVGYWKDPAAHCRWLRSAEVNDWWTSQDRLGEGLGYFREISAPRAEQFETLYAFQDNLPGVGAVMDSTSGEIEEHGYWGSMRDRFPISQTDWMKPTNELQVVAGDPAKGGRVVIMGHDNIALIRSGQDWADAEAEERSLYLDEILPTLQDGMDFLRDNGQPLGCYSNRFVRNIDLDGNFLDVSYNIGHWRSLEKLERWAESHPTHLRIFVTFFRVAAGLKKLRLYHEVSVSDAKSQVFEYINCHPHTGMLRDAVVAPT

[2] = target: T2, OxdB (Bacillus sp. OxB-1, UniProt P82604); assay: whole-cell dehydration to adiponitrile, GC; conditions: E. coli resting cells, 50 mM potassium phosphate pH 7.0, 30 °C, argon, with or without 20% DMSO; activity only per bio wet weight
T2 construct: gene oxd; recombinant in E. coli, resting whole cells; plasmid details only in supplement; ferrous heme enzyme
T2 sequence (P82604 2-351): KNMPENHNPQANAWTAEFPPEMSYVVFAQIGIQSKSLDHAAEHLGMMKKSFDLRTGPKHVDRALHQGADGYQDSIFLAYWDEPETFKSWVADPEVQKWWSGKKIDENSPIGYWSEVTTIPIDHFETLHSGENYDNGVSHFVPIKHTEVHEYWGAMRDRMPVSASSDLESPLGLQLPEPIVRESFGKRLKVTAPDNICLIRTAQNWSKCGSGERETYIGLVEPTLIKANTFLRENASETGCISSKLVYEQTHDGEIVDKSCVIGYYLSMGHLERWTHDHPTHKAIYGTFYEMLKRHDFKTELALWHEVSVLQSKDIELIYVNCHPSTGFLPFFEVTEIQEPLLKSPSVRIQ

[3] = target: T1, OxdA; assay: whole-cell dehydration to the dinitrile, analytical scale; conditions: E. coli resting cells; substrate 3.0-75 mM range; activity only per bio wet weight
[4] = target: T2, OxdB; assay: as above; conditions: E. coli resting cells; substrate 3.0-75 mM range; activity only per bio wet weight

SMILES	whole-cell dehydration to adiponitrile, GC [1]	whole-cell dehydration to adiponitrile, GC [2]	whole-cell dehydration to the dinitrile, analytical scale [3]	whole-cell dehydration to the dinitrile, analytical scale [4]
ON=CCCCCC=NO [1d, adipaldehyde dioxime]	the C6-C10-dialdoximes (1d-h) were converted by both Oxds completely with excellent efficiency	the C6-C10-dialdoximes (1d-h) were converted by both Oxds completely with excellent efficiency		
ON=CCCCCCCC=NO [1f, C8-dialdoxime]			the C6-C10-dialdoximes (1d-h) were converted by both Oxds completely with excellent efficiency	the C6-C10-dialdoximes (1d-h) were converted by both Oxds completely with excellent efficiency

From PMC6269433, “Biocatalytic production of adiponitrile and related aliphatic linear α,ω-dinitriles” (Nature Communications, 2018)
